# Results published in patent publication US20070208087A1, “Compounds, compositions and methods for the treatment of inflammatory diseases” (priority 2001, published 2007).
# “And” between values parts separate entries of the source, which are not always exact repeats. Equal entries are not always repeated. Where two headings read alike, the source gives them in different places.
# Tests used:
# Assay type in all cases: cell-based
# Microglial cells = assay: Dose response inhibition of NO release from microglia, 0.75-200 μM (Example 8)
# Description: This experiment was designed to determine dose response inhibition of NO release from microglia by bis- and tris-dihydroxyaryl compounds when stimulated with LPS/IFNγ. […] This experiment is designed to determine a dose response for various bis- and tris-dihydroxyaryl compounds. Microglial cells were plated into 96 well plates at 1×10^5 cells/ml. […] The doses tested were: 0.75 μM, 1.56 μM, 3.125 μM, 6.25 μM, 12.5 μM, 25 μM, 50 μM, 100 μM and 200 μM. Nitric oxide release was measured after 48 hours using the Griess reaction.
# [1] = tested on: EOC 13.31 microglia cells; assay: NO release inhibition in LPS/IFNγ stimulated microglia, concurrent treatment, Griess reaction at 24 hours (Example 6); conditions: for NO release, Avg / inhibition at 50 µM: 24 hours; for inhibition at 50 µM: Microglia
# Description: The purpose of this experiment was to screen compounds 3, 4, 21, 26, 51, 52, 66, and 78 for their ability to inhibit Nitric oxide release from microglia. […] EOC 13.31 microglia cells were plated into 96 well plates for 24 hours. Confluent cells were treated with 50 μM of the bis- and tris-dihydroxyaryl compounds either with or without stimulation at 1 pg/ml LPS, and 1 ng/ml IFNγ. NO release was measured at 24 hours using the Griess reaction which is a spectrophotometric measure of NO release (reagents from Promega).
# [2] = tested on: EOC 13.31 microglia cells; assay: Inhibition of NO release from microglia following 24 hours pretreatment (Example 10); conditions: for inhibition at 50 µM: Microglia
# Description: This experiment was designed to determine if pretreatment for 24 hours with bis- and tris-dihydroxyaryl compounds changes NO inhibition previously observed with concurrent exposure of bis- and tris-dihydroxyaryl compounds. […] This study seeks to determine if pretreatment with bis- and tris-dihydroxyaryl compounds increases NO release inhibition. EOC 13.31 microglia cells were plated at 1×10^6 cells/ml in 96 well plates. After 48 hours, confluent cells were exposed to 50 μM compound (stock 10 mM in DMSO) prepared in fresh cell culture media. After 24 hours, 10 μg/ml LPS and 10 ng/ml IFNγ was added to wells directly without a media change. Cells were incubated for a further 48 hours and nitric oxide release was measured using the Griess Reaction.
# microglia = assay: Ranking of NO release inhibition (Example 12); conditions: Microglia, ranking table
# From the text: The bis- and tris-dihydroxyaryl compounds were ranked in order of effectiveness for the inhibition of NO release as set out in Table 8.
# [3] = dose 0.75 μM, 48 hours, single replicates
# [4] = dose 1.56 μM, 48 hours, single replicates
# [5] = dose 3.125 μM, 48 hours, single replicates
# [6] = dose 6.25 μM, 48 hours, single replicates
# [7] = dose 12.5 μM, 48 hours, single replicates
# [8] = dose 25 μM, 48 hours, single replicates
# [9] = dose 50 μM, 48 hours, single replicates
# [10] = dose 100 μM, 48 hours, single replicates
# [11] = dose 200 μM, 48 hours, single replicates
# [12] = Compound Only (without LPS/IFNγ), 50 μM
# [13] = Compound + LPS/IFNγ, read-out: % inhibition of NO release
# [14] = Table 2 summary, LPS/IFNγ, read-out: % Inhibition (summary of inhibition of NO release)
# [15] = 50 uM pretreatment 24 hours, then LPS/IFNγ 48 hours, single replicates
# [16] = 50 uM pretreatment 24 hours, then LPS/IFNγ 48 hours, read-out: Avg % Inhibition
# [17] = 50 uM pretreatment 24 hours, then LPS/IFNγ 48 hours, single replicates, read-out: % inhibition
smiles,measurement,setting,value
"Oc1ccc(CCc2ccc(O)c(O)c2)cc1O [Compound 4, 1,2-bis(3,4-dihydroxyphenyl)ethane]",inhibition at 0.75 µM,"Microglial cells; Microglia, 48 h, dose 0.75 μM",-11.1%
same,inhibition at 1.56 µM,"Microglial cells; Microglia, 48 h, dose 1.56 μM",2.52%
same,inhibition at 3.125 µM,"Microglial cells; Microglia, 48 h, dose 3.125 μM",6.14%
same,inhibition at 6.25 µM,"Microglial cells; Microglia, 48 h, dose 6.25 μM, 48 hours, read-out: Avg % Inhibition",36.2%
same,inhibition at 6.25 µM,"Microglial cells; Microglia, 48 h, dose 6.25 μM, 48 hours, single replicates, read-out: % inhibition",42.2%
same,inhibition at 12.5 µM,"Microglial cells; Microglia, 48 h, dose 12.5 μM, 48 hours, read-out: Avg % Inhibition",82.7%
same,inhibition at 12.5 µM,"Microglial cells; Microglia, 48 h, dose 12.5 μM, 48 hours, single replicates, read-out: % inhibition",85.1%
same,inhibition at 25 µM,"Microglial cells; Microglia, 48 h, dose 25 μM, 48 hours, read-out: Avg % Inhibition",86.2%
same,inhibition at 25 µM,"Microglial cells; Microglia, 48 h, dose 25 μM, 48 hours, single replicates, read-out: % inhibition",85.6%
same,inhibition at 50 µM,"Microglial cells; Microglia, 48 h, dose 50 μM, 48 hours, read-out: Avg % Inhibition",86.5%
same,inhibition at 50 µM,"Microglial cells; Microglia, 48 h, dose 50 μM, 48 hours, single replicates, read-out: % inhibition",87.2%
same,inhibition at 100 µM,"Microglial cells; Microglia, 48 h, dose 100 μM, 48 hours, read-out: Avg % Inhibition",82.2%
same,inhibition at 100 µM,"Microglial cells; Microglia, 48 h, dose 100 μM, 48 hours, single replicates, read-out: % inhibition",83%
same,inhibition at 200 µM,"Microglial cells; Microglia, 48 h, dose 200 μM, 48 hours, read-out: Avg % Inhibition",75%
same,inhibition at 200 µM,"Microglial cells; Microglia, 48 h, dose 200 μM, 48 hours, single replicates, read-out: % inhibition",77.4%
same,μM NO release Avg,"Microglial cells; dose 0.75 μM, 48 hours",27.011 µM
same,% inhibition,Microglial cells; [3],−8.45% and −9.87% and −14.83%
same,OD values (printed under head μM NO release),Microglial cells; [3],0.229 and 0.22 and 0.222
same,μM NO release,Microglial cells; [3],27.931 µM and 26.379 µM and 26.724 µM
same,μM NO release Avg,"Microglial cells; dose 1.56 μM, 48 hours",23.709 µM
same,% inhibition,Microglial cells; [4],6.85% and 4.93% and −4.20%
same,OD values (printed under head μM NO release),Microglial cells; [4],0.214 and 0.197 and 0.2
same,μM NO release,Microglial cells; [4],25.345 µM and 22.656 µM and 23.125 µM
same,μM NO release Avg,"Microglial cells; dose 3.125 μM, 48 hours",22.829 µM
same,% inhibition,Microglial cells; [5],12.63% and 10.71% and −4.91%
same,OD values (printed under head μM NO release),Microglial cells; [5],0.215 and 0.188 and 0.191
same,μM NO release,Microglial cells; [5],25.517 µM and 21.250 µM and 21.719 µM
same,μM NO release Avg,"Microglial cells; dose 6.25 μM, 48 hours",15.521 µM
same,% inhibition,Microglial cells; [6],40.26% and 26.12%
same,OD values (printed under head μM NO release),Microglial cells; [6],0.167 and 0.142 and 0.145
same,μM NO release,Microglial cells; [6],17.969 µM and 14.063 µM and 14.531 µM
same,μM NO release Avg,"Microglial cells; dose 12.5 μM, 48 hours",4.21 µM
same,% inhibition,Microglial cells; [7],84.07% and 78.93%
same,OD values (printed under head μM NO release),Microglial cells; [7],0.083 and 0.071 and 0.073
same,μM NO release,Microglial cells; [7],5.125 µM and 3.625 µM and 3.875 µM
same,μM NO release Avg,"Microglial cells; dose 25 μM, 48 hours",3.357 µM
same,% inhibition,Microglial cells; [8],87.89%
same,OD values (printed under head μM NO release),Microglial cells; [8],0.071 and 0.07 and 0.064
same,μM NO release,Microglial cells; [8],3.625 µM and 3.500 µM and 2.947 µM
same,μM NO release Avg,"Microglial cells; dose 50 μM, 48 hours",3.292 µM
same,OD values (printed under head μM NO release),Microglial cells; [9],0.071 and 0.067 (2×)
same,μM NO release,Microglial cells; [9],3.625 μM and 3.125 μM (2×)
same,μM NO release Avg,"Microglial cells; dose 100 μM, 48 hours",4.333 µM
same,% inhibition,Microglial cells; [10],82.01% and 81.50%
same,OD values (printed under head μM NO release),Microglial cells; [10],0.078 and 0.075 and 0.077
same,μM NO release,Microglial cells; [10],4.500 µM and 4.125 µM and 4.375 µM
same,Avg % Inhibition,"Microglial cells; dose 200 μM, 48 hours",75.332%
same,μM NO release Avg,"Microglial cells; dose 200 μM, 48 hours",6.000 µM
same,% inhibition,Microglial cells; [11],74.30%
same,OD values (printed under head μM NO release),Microglial cells; [11],0.092 (2×) and 0.086
same,μM NO release,Microglial cells; [11],6.250 μM (2×) and 5.500 μM
same,"inhibition of NO release, in words",Microglial cells; dose response 0.75-200 μM,effective inhibitors of NO release
same,"inhibition of NO release, in words","[1]; 50 μM, LPS/IFNγ stimulated microglial cells",very effective inhibitors of NO release
same,"NO release, Avg","[1]; Compound + LPS/IFNγ, 50 μM",1.0417 µM
same,"NO release, Avg",[1]; [12],0.8660 µM
same,inhibition at 50 µM,[1]; [13],94.4%
same,inhibition at 50 µM,[1]; [14],94.4%
same,μM NO release,[2]; [15],0.000 µM
same,inhibition at 50 µM,[2]; [16],100%
same,inhibition at 50 µM,[2]; [17],100%
same,inhibition at 50 µM,"[2]; 50 μM pretreatment, read-out: inhibition of NO release following pretreatment",> 75%
same,inhibition at 50 µM,microglia,94%
"O=C(CCC(=O)Nc1ccc(O)c(O)c1)Nc1ccc(O)c(O)c1 [Compound 66, succinic acid bis(3,4-dihydroxyanilide)]","NO release, Avg","[1]; Compound + LPS/IFNγ, 50 μM",15.4762 µM
same,"NO release, Avg",[1]; [12],0.8333 µM
same,inhibition at 50 µM,[1]; [13],16.9%
same,inhibition at 50 µM,[1]; [14],16.9%
same,% inhibition,[2]; [15],59.20% and 65.21%
same,inhibition at 50 µM,[2]; [16],64.3%
same,inhibition at 50 µM,[2]; [17],68.4%
same,inhibition at 50 µM,microglia,17%
"O=C(NCCc1ccc(O)c(O)c1)Nc1ccc(O)c(O)c1 [Compound 78, 1-(3,4-dihydroxyphenyl)-3-(3,4-dihydroxyphenethyl)urea]","NO release, Avg","[1]; Compound + LPS/IFNγ, 50 μM",18.7925 µM
same,"NO release, Avg",[1]; [12],1.1667 µM
same,inhibition at 50 µM,[1]; [13],-0.9%
same,inhibition at 50 µM,[1]; [14],-0.9%
same,% inhibition,[2]; [15],57.93% and 69.00%
same,inhibition at 50 µM,[2]; [16],65.5%
same,inhibition at 50 µM,[2]; [17],69.6%
same,inhibition at 50 µM,microglia,-1%
